Values joined by “and” are separate entries in the source; they are usually repeats but may differ in a detail not shown here. Identical values can stand only once. Toxic doses and inconclusive results are not listed. How the source made its calls: active means survival T/C of 150% or more; inactive means T/C below 125% in these data.
Tested on: P388 leukemia ip, CD2F1 mice, survival T/C
Test: NCI In Vivo Anticancer Drug Screen. Data for tumor model P388 Leukemia (intraperitoneal) in CD2F1 (CDF1) mice
Details: endpoint: median survival time, higher = longer survival
Method in brief: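 Mice carrying the transplanted tumor received test compound or vehicle. Survival was recorded in each group, and the value is the treated-group measurement divided by that of the vehicle-treated control group.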

[1] = dose: 25.0 mg/kg/injection, schedule: Q01DX009 (ip), vehicle: saline with Tween-80
[2] = dose: 50.0 mg/kg/injection, schedule: Q01DX009 (ip), vehicle: saline with Tween-80
[3] = dose: 100.0 mg/kg/injection, schedule: Q01DX009 (ip), vehicle: saline with Tween-80
[4] = dose: 50.0 mg/kg/injection, schedule: Q01DX005 (ip), vehicle: saline with Tween-80
[5] = dose: 100.0 mg/kg/injection, schedule: Q01DX005 (ip), vehicle: saline with Tween-80
[6] = dose: 200.0 mg/kg/injection, schedule: Q01DX005 (ip), vehicle: saline with Tween-80
[7] = dose: 50.0 mg/kg/injection, schedule: Q01DX009 (ip), vehicle: Klucel (hydroxypropylcellulose) (HPC)
[8] = dose: 100.0 mg/kg/injection, schedule: Q01DX009 (ip), vehicle: Klucel (hydroxypropylcellulose) (HPC)
[9] = dose: 60.0 mg/kg/injection, schedule: Q01DX005 (ip), vehicle: Klucel (hydroxypropylcellulose) (HPC)
[10] = dose: 60.0 mg/kg/injection, schedule: Q01DX005 (ip), vehicle: saline
[11] = dose: 120.0 mg/kg/injection, schedule: Q01DX005 (ip), vehicle: Klucel (hydroxypropylcellulose) (HPC)
[12] = dose: 120.0 mg/kg/injection, schedule: Q01DX005 (ip), vehicle: saline
[13] = dose: 240.0 mg/kg/injection, schedule: Q01DX005 (ip), vehicle: Klucel (hydroxypropylcellulose) (HPC)
[14] = dose: 240.0 mg/kg/injection, schedule: Q01DX005 (ip), vehicle: saline
[15] = dose: 50.0 mg/kg/injection, schedule: Q01DX009 (ip), vehicle: saline
[16] = dose: 100.0 mg/kg/injection, schedule: Q01DX009 (ip), vehicle: saline
[17] = dose: 200.0 mg/kg/injection, schedule: Q01DX009 (ip), vehicle: saline
[18] = dose: 12.5 mg/kg/injection, schedule: Q01DX009 (ip), vehicle: Klucel (hydroxypropylcellulose) (HPC)
[19] = dose: 25.0 mg/kg/injection, schedule: Q01DX009 (ip), vehicle: Klucel (hydroxypropylcellulose) (HPC)
[20] = dose: 200.0 mg/kg/injection, schedule: Q01DX009 (ip), vehicle: saline with Tween-80
[21] = dose: 400.0 mg/kg/injection, schedule: Q01DX009 (ip), vehicle: saline with Tween-80

Measured: T/C

CCOC(=O)c1nc(OCC)nc(OCC)c1I
inactive: dose: 12.5 mg/kg/injection, schedule: Q01DX009 (ip), vehicle: distilled water + Tween-80 112 % of control | dose: 25.0 mg/kg/injection, schedule: Q01DX009 (ip), vehicle: distilled water + Tween-80 107 % of control | dose: 50.0 mg/kg/injection, schedule: Q01DX009 (ip), vehicle: distilled water + Tween-80 96 % of control | dose: 100.0 mg/kg/injection, schedule: Q01DX009 (ip), vehicle: distilled water + Tween-80 95 % of control

Clc1nnc(Cl)s1
inactive: [1] 96 % of control | [2] 95 % of control | [3] 101 % of control

CCOC(=O)C1=C(C)NC(C)=C(C(=O)OCC)C1(C)C
inactive: [4] 104 % of control | [5] 100 % of control | [6] 100 % of control

C=C1C(=O)C23C(OC(=O)CCCCCCCCCCC)C1CCC2C12COC3(O)C(O)C1C(C)(C)CCC2O (configuration not stated)
inactive: dose: 3.75 mg/kg/injection, schedule: Q01DX009 (ip), vehicle: saline with Tween-80 98 % of control | dose: 7.5 mg/kg/injection, schedule: Q01DX009 (ip), vehicle: saline with Tween-80 103 % of control | dose: 15.0 mg/kg/injection, schedule: Q01DX009 (ip), vehicle: saline with Tween-80 95 % of control | dose: 30.0 mg/kg/injection, schedule: Q01DX009 (ip), vehicle: saline with Tween-80 100 % of control

CCOc1ccnc2c(C)c3c([nH]c4ccccc43)c(C)c12
inactive: dose: 100.0 mg/kg/injection, schedule: Q04DX002 (ip), vehicle: saline with Tween-80 98 % of control | dose: 200.0 mg/kg/injection, schedule: Q04DX002 (ip), vehicle: saline with Tween-80 94 % of control | dose: 400.0 mg/kg/injection, schedule: Q04DX002 (ip), vehicle: saline with Tween-80 96 % of control

CCOc1c(N=Nc2ccccc2Cl)c(-c2ccccc2)nn1C(N)=S
inactive: [4] 94 % of control | [5] 90 % of control | [6] 102 % of control

O=C(OC1CSC=CSC1)c1ccccc1
inactive: [7] 104 % of control | [8] 109 % of control | dose: 200.0 mg/kg/injection, schedule: Q01DX009 (ip), vehicle: Klucel (hydroxypropylcellulose) (HPC) 110 % of control

NS(=O)(=O)c1ccc(N=NC2C(=O)N(c3ccccc3)C(=S)N(c3ccccc3)C2=O)cc1
inactive: [9] 100 % of control | [10] 106 % of control | [11] 100 % of control | [12] 95 % of control | [13] 91 % of control | [14] 92 % of control

O=[N+]([O-])c1ccc(-n2nnc3ccccc32)nc1
inactive: [15] 108 % of control | [16] 99 % of control | [17] 99 % of control

O=C(O)c1ccccc1-c1ccccc1[N+](=O)[O-]
inactive: [15] 88 % of control | [16] 97 % of control | [17] 97 % of control

CC(=O)/C(C)=C/C(=O)O
inactive: dose: 25.0 mg/kg/injection, schedule: Q01DX009 (ip), vehicle: saline 100 % of control | dose: 25.0 mg/kg/injection, schedule: Q04DX003 (ip), vehicle: saline 104 % of control | [15] 100 % of control | dose: 50.0 mg/kg/injection, schedule: Q04DX003 (ip), vehicle: saline 122 % of control | [16] 109 % of control | dose: 100.0 mg/kg/injection, schedule: Q04DX003 (ip), vehicle: saline 100 % of control

COc1cc(I)cc(OC)c1OC
inactive: dose: 6.25 mg/kg/injection, schedule: Q01DX009 (ip), vehicle: Klucel (hydroxypropylcellulose) (HPC) 97 % of control | [18] 94 % of control | [19] 96 % of control | [7] 91 % of control

O=C(NCc1ccccc1)N1CCN(c2ccccc2)C1=O
inactive: [1] 103 % of control and 88 % of control | [2] 98 % of control and 89 % of control and 96 % of control | [3] 97 % of control | [20] 98 % of control and 89 % of control and 93 % of control

C[C@]12CCC(=O)C=C1CC[C@@H]1[C@@H]2C(=O)C[C@@]2(C)[C@H]1CC[C@]2(O)C(=O)C=O
inactive: [18] 111 % of control and 123 % of control | [19] 119 % of control | [7] 111 % of control and 120 % of control | [8] 102 % of control and 113 % of control

O=C1NC(c2ccccc2)(c2ccccc2)C(=O)N1CN1CC=CCC1
inactive: [9] 103 % of control | [11] 108 % of control | [13] 97 % of control

CC(=O)Nc1c(C)ncn(-c2ccccc2)c1=O
inactive: [10] 95 % of control | [12] 100 % of control | [14] 101 % of control

CC1CN1c1nc(N2CC2C)nc(N2CC2C)n1 (configuration not stated)
inactive: dose: 1.56 mg/kg/injection, schedule: Q01DX009 (ip), vehicle: saline with Tween-80 94 % of control | dose: 3.13 mg/kg/injection, schedule: Q01DX009 (ip), vehicle: saline with Tween-80 98 % of control

CN(C)CC(O)c1ccc2cc(Br)c3ccccc3c2c1 (configuration not stated)
inactive: dose: 12.5 mg/kg/injection, schedule: Q01DX005 (ip), vehicle: saline with Tween-80 97 % of control | dose: 25.0 mg/kg/injection, schedule: Q01DX005 (ip), vehicle: saline with Tween-80 106 % of control | [4] 100 % of control and 97 % of control

O=c1[nH]cc(NS(=O)(=O)c2ccccc2)c(=O)[nH]1
inactive: dose: 60.0 mg/kg/injection, schedule: Q01DX005 (ip), vehicle: saline with Tween-80 105 % of control | dose: 120.0 mg/kg/injection, schedule: Q01DX005 (ip), vehicle: saline with Tween-80 101 % of control

CC(C)(C)OC(=O)NC(CCCN=C(N)N)C(=O)O (configuration not stated)
inactive: dose: 50.0 mg/kg/injection, schedule: Q01DX005 (ip), vehicle: saline 100 % of control | dose: 100.0 mg/kg/injection, schedule: Q01DX005 (ip), vehicle: saline 94 % of control | dose: 200.0 mg/kg/injection, schedule: Q01DX005 (ip), vehicle: saline 100 % of control

N=c1ccn2c(n1)OC1C(O)C(COS(=O)OC3C(CO)OC4C3Oc3nc(=N)ccn34)OC12 (configuration not stated)
inactive: [20] 112 % of control

CC(O)(CCCCCl)c1nc2ccccc2s1 (configuration not stated)
inactive: dose: 100.0 mg/kg/injection, schedule: Q01DX001 (ip), vehicle: saline with Tween-80 98 % of control | dose: 200.0 mg/kg/injection, schedule: Q01DX001 (ip), vehicle: saline with Tween-80 103 % of control | dose: 400.0 mg/kg/injection, schedule: Q01DX001 (ip), vehicle: saline with Tween-80 92 % of control

N#Cc1ccc(=O)[nH]c1O
inactive: [2] 99 % of control | [3] 100 % of control

CCSCCC1(CCC(C)C)C(=O)NC(=Nc2ccccc2)NC1=O (configuration not stated)
inactive: [2] 99 % of control | [3] 95 % of control | [20] 99 % of control | [21] 95 % of control

N#Cc1cc2ccncc2c2ccccc12
inactive: [1] 90 % of control | [2] 93 % of control and 95 % of control | [3] 98 % of control | [20] 106 % of control and 89 % of control | [21] 114 % of control

CCOC(=O)c1ccc(N2C(=O)OC(C)(C)C2=O)cc1
inactive: dose: 50.0 mg/kg/injection, schedule: Q01DX005 (ip), vehicle: Klucel (hydroxypropylcellulose) (HPC) 103 % of control | dose: 100.0 mg/kg/injection, schedule: Q01DX005 (ip), vehicle: Klucel (hydroxypropylcellulose) (HPC) 97 % of control | dose: 200.0 mg/kg/injection, schedule: Q01DX005 (ip), vehicle: Klucel (hydroxypropylcellulose) (HPC) 101 % of control

From PubChem BioAssay AID330 (DTP/NCI, 2004)
